Measured values taken from publication PMC11844072, “Novel 5,6-dichlorobenzimidazole derivatives as dual BRAFWT and BRAFV600E inhibitors: design, synthesis, anti-cancer activity and molecular dynamics simulations” (BMC Chemistry, 2025).

Tests used:
OVCAR-3 = assay: NCI 60 single concentration growth inhibition; format: cell-based, human; conditions: Homo sapiens, OVCAR-3, Ovarian cancer, read-out: GI%
Protocol: (§1) The synthesized dichlorobenzimidazoles 10a–p were assayed for their influence on divers cancer cell lines according to the method presented in the Additional file A.
(§2) 5. Screening of cytotoxic activity against a panel of sixty human tumor cell lines
(§3) The selected compounds by NCI were evaluated for their anticancer activity in a two-stage process. First, these compounds were screened against the full NCI 60 cell lines panel at a single high dose of 10 µM. Then, the output from the single dose screen is reported as a mean graph. […]
(§4) Assay protocol. The human tumor cell lines of the cancer screening panel are grown in RPMI 1640 medium containing 5% fetal bovine serum and 2 mM L-glutamine. For a typical screening experiment, cells are inoculated into 96 well microtiter plates in 100 µL at plating densities ranging from 5000 to 40,000 cells/well depending on the doubling time of individual cell lines. After cell inoculation, the microtiter plates are incubated at 37 °C, 5% CO 2, 95% air and 100% relative humidity for 24 h prior to addition of the experimental drugs.
(§5) After 24 h, two plates of each cell line are fixed in situ with TCA, to represent a measurement of the cell population for each cell line at the time of drug addition (Tz). The experimental drugs are solubilized in dimethyl sulfoxide at 400-fold the desired final maximum test concentration and stored frozen prior to use. At the time of drug addition, an aliquot of frozen concentrate is thawed and diluted to twice the desired final maximum test concentration with complete medium containing 50 µg/mL gentamicin. Additional four, 10-fold or ½ log serial dilutions are made to provide a total of five drug concentrations plus control.
(§6) Aliquots of […] of these different drug dilutions are added to the appropriate microtiter wells already containing […] of medium, resulting in the required final drug concentrations.
(§7) Following drug addition, the plates are incubated for an additional 48 h at 37 °C, 5% CO 2, 95% air, and 100% relative humidity. For adherent cells, the assay is terminated by the addition of cold TCA.
(§8) Cells are fixed in situ by the gentle addition of 50 µL of cold 50% (w/v) TCA (final concentration, 10% TCA) and incubated for 60 min at 4 °C. The supernatant is discarded, and the plates are washed five times with tap water and air dried. Sulforhodamine B (SRB) solution ([…]) at 0.4% (w/v) in 1% acetic acid is added to each well, and plates are incubated for 10 min at room temperature. After staining, unbound dye is removed by washing five times with 1% acetic acid and the plates are air dried. Bound stain is subsequently solubilized with 10 mM trizma base, and the absorbance is read on an automated plate reader at a wavelength of 515 nm. For suspension cells, the methodology is […]
(§9) the same except that the assay is terminated by fixing settled cells at the bottom of the wells by gently adding 50 µl of 80% TCA (final concentration, 16% TCA). Using the seven absorbance measurements [time zero, (Tz), control growth, (C), and test growth in the presence of drug at the five concentration levels (Ti)], the percentage growth is calculated at each of the drug concentrations […]
(§10) Percentage growth inhibition is calculated as: [(Ti Tz)/(C–Tz)] x 100 for concentrations for which Ti>/=Tz and [(Ti-Tz)/Tz] x 100 for concentrations for which Ti < Tz. […]
(§11) Results for each compound were reported as a mean graph of the percent growth of the treated cells when compared to the untreated control cells. There after obtaining the results for one dose assay, analysis of historical Development Therapeutics Programme (DTP) was performed and compounds which satisfies predetermined threshold inhibition criteria is selected for NCI full panel 5 dose assay.

NCI-H522 = assay: NCI 60 single concentration growth inhibition; format: cell-based, human; conditions: Homo sapiens, NCI-H522, Non-small cell lung cancer, read-out: GI%
Protocol: as §1, §2, §3, §4, §5, §6, §7, §8, §9, §10, §11

LOX IMVIL = assay: NCI 60 single concentration growth inhibition; format: cell-based, human; conditions: Homo sapiens, Melanoma, read-out: GI%
Protocol: as §1, §2, §3, §4, §5, §6, §7, §8, §9, §10, §11

HCC-2998 = assay: NCI 60 single concentration growth inhibition; format: cell-based, human; conditions: Homo sapiens, HCC-2998, Colon cancer, read-out: GI%
Protocol: as §1, §2, §3, §4, §5, §6, §7, §8, §9, §10, §11

SW-620 = assay: NCI 60 single concentration growth inhibition; format: cell-based, human; conditions: Homo sapiens, SW-620, Colon cancer, read-out: GI%
Protocol: as §1, §2, §3, §4, §5, §6, §7, §8, §9, §10, §11

NCI/ADR-RES = assay: NCI 60 single concentration growth inhibition; format: cell-based, human; conditions: Homo sapiens, Ovarian cancer, read-out: GI%
Protocol: as §1, §2, §3, §4, §5, §6, §7, §8, §9, §10, §11

HT29 = assay: NCI 60 single concentration growth inhibition; format: cell-based, human; conditions: Homo sapiens, HT-29, HT29, Colon cancer, read-out: GI%
Protocol: as §1, §2, §3, §4, §5, §6, §7, §8, §9, §10, §11

DU-145 = assay: NCI 60 single concentration growth inhibition; format: cell-based, human; conditions: Homo sapiens, DU-145, Prostate cancer, read-out: GI%
Protocol: as §1, §2, §3, §4, §5, §6, §7, §8, §9, §10, §11

HCT-15 = assay: NCI 60 single concentration growth inhibition; format: cell-based, human; conditions: Homo sapiens, HCT-15, Colon cancer, read-out: GI%
Protocol: as §1, §2, §3, §4, §5, §6, §7, §8, §9, §10, §11

SF-539 = assay: NCI 60 single concentration growth inhibition; format: cell-based, human; conditions: Homo sapiens, SF-539, CNS cancer, read-out: GI%
Procedure, shortened: (§12)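 Read-out is SRB absorbance at 515 nm after TCA fixation (10% for adherent lines, 16% for suspension lines). Drugs were applied for 48 h following a 24 h plating period. Growth percentages came from time-zero, control and treated absorbances.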

MDA-MB-435 = assay: NCI 60 single concentration growth inhibition; format: cell-based, human; conditions: Homo sapiens, MDA-MB-435, Melanoma, read-out: GI%
Procedure, shortened: as §12

HCT-116 = assay: NCI 60 single concentration growth inhibition; format: cell-based, human; conditions: Homo sapiens, HCT-116, Colon cancer, read-out: GI%
Procedure, shortened: as §12

MOLT-4 = assay: NCI 60 single concentration growth inhibition; format: cell-based, human; conditions: Homo sapiens, MOLT-4, Leukemia, read-out: GI%
Procedure, shortened: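 Cells are plated and left 24 h, and a time-zero plate is fixed at drug addition. Compound is then added for 48 h, the cells are fixed in cold TCA and stained with 0.4% SRB, and bound dye is solubilised in 10 mM Tris for reading at 515 nm.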

NCI-H23 = assay: NCI 60 single concentration growth inhibition; format: cell-based, human; conditions: Homo sapiens, NCI-H23, Non-small cell lung cancer, read-out: GI%
Procedure, shortened: as §12

CAKI-1 = assay: NCI 60 single concentration growth inhibition; format: cell-based, human; conditions: Homo sapiens, CAKI-1, Renal cancer, read-out: GI%
Procedure, shortened: as §12

RPMI-8226 = assay: NCI 60 single concentration growth inhibition; format: cell-based, human; conditions: Homo sapiens, RPMI-8226, Leukemia, read-out: GI%
Procedure, shortened: as §12

KM12 = assay: NCI 60 single concentration growth inhibition; format: cell-based, human; conditions: Homo sapiens, KM12, Colon cancer, read-out: GI%
Procedure, shortened: as §12

[1] = system: NCI 60 cancer cell line panel; assay: NCI 60 single concentration growth inhibition, panel mean; format: cell-based; conditions: Homo sapiens, mean over NCI 60 panel, read-out: Mean GI%
Protocol: as §1, §2, §3
at five different minimal concentrations.
as §4, §5, §6, §7, §8, §9
Percentage growth inhibition is calculated as: [(Ti Tz)/(C–Tz)] x 100 for concentrations for which Ti>/=Tz and [(Ti-Tz)/Tz] x 100 for concentrations for which Ti < Tz.
Three dose response parameters are calculated for each experimental agent. Growth […]
concentration resulting in a 50% reduction in the net protein increase (as measured by SRB staining) in control cells during the drug incubation. The drug concentration resulting in total growth inhibition (TGI) is calculated from Ti = Tz. […]
reduction in the measured protein at the end of the drug treatment as compared to that at the beginning) indicating a net loss of cells following treatment is calculated from [(Ti–Tz)/Tz] x 100 =
_50. Values are calculated for each of these three parameters if the level of activity is reached; […]

| Compound | inhibition at 10 µM (OVCAR-3) [%] | inhibition at 10 µM (NCI-H522) [%] | inhibition at 10 µM (LOX IMVIL) [%] | inhibition at 10 µM (HCC-2998) [%] | inhibition at 10 µM (SW-620) [%] | inhibition at 10 µM (NCI/ADR-RES) [%] | inhibition at 10 µM (HT29) [%] | inhibition at 10 µM (DU-145) [%] | inhibition at 10 µM (HCT-15) [%] | inhibition at 10 µM (SF-539) [%] | inhibition at 10 µM (MDA-MB-435) [%] | inhibition at 10 µM (HCT-116) [%] | inhibition at 10 µM (MOLT-4) [%] | inhibition at 10 µM (NCI-H23) [%] | inhibition at 10 µM (CAKI-1) [%] | inhibition at 10 µM (RPMI-8226) [%] | inhibition at 10 µM (KM12) [%] | inhibition at 10 µM [1] [%] |
| --- | --- | --- | --- | --- | --- | --- | --- | --- | --- | --- | --- | --- | --- | --- | --- | --- | --- | --- |
| COc1ccc(-c2nc3cc(Cl)c(Cl)cc3n2CC(=O)NN=Cc2ccc(OCC(=O)O)cc2)cc1 [Compound 10f, 2-(4-((2-(2-(5,6-Dichloro-2-(4-methoxyphenyl)-1H-benzo[d]imidazol-1-yl)acetyl)hydrazono)methyl)phenoxy)acetic acid] | < 5 | < 5 | 8.41 | < 5 | < 5 | < 5 | < 5 | < 5 | 6.73 | 10.8 | < 5 | < 5 | < 5 | < 5 | 15 | < 5 | < 5 | < 5 |
| COC(=O)COc1ccc(C=NNC(=O)Cn2c(-c3ccc(OC)cc3)nc3cc(Cl)c(Cl)cc32)cc1 [Compound 10h, Methyl-2-(4-((2-(2-(5,6-dichloro-2-(4-methoxyphenyl)-1H-benzo[d]imidazol-1-yl)acetyl)hydrazono)methyl)phenoxy)acetate] | 93 | 7.31 | 39.5 | 142 | < 5 | < 5 | 93.4 | 158 | 40.3 | 39.2 | 18.3 | 10.8 | 53.2 | < 5 | 5.89 | < 5 | < 5 | 36.6 |
| CCOC(=O)C(C)Oc1ccc(C=NNC(=O)Cn2c(-c3ccc(OC)cc3)nc3cc(Cl)c(Cl)cc32)cc1 (stereo not drawn) [Compound 10j, Ethyl-2-(4-((2-(2-(5,6-dichloro-2-(4-methoxyphenyl)-1H-benzo[d]imidazol-1-yl)acetyl) hydrazono)methyl)phenoxy)propanoate] | < 5 | 32.6 | 18.4 | 15.4 | < 5 | < 5 | 39.2 | 85.2 | 37.1 | < 5 | 24.8 | 32.3 | 53.2 | 20.8 | 9.1 | 40.2 | < 5 | 18.4 |
| COc1ccc(-c2nc3cc(Cl)c(Cl)cc3n2CC(=O)NN=Cc2ccc(O)c(OC)c2)cc1 [Compound 10l, 2-(5,6-Dichloro-2-(4-methoxyphenyl)-1H-benzo[d]imidazol-1-yl)-N'-(4-hydroxy-3-methoxybenzylidene)acetohydrazide] | 28.7 | 23.5 | 38.5 | 18.2 | 9.29 | 38.4 | 13 | 31.8 | 51.5 | 32.4 | 42.2 | 31.6 | 70.8 | 15 | 55.3 | 48.3 | 25.4 | 34.6 |
| COc1ccc(-c2nc3cc(Cl)c(Cl)cc3n2CC(=O)NN=Cc2cccc(O)c2)cc1 [Compound 10a, 2-(5,6-Dichloro-2-(4-methoxyphenyl)-1H-benzo[d]imidazol-1-yl)-N'-(3-hydroxybenzylidene)acetohydrazide] | 36.6 | 30 | 29 | 35.9 | 31.7 | 44.5 | 41.2 | 44.2 | 60 | 36.5 | 45.9 | 59.6 | 70.4 | 53.8 | 55 | 67.4 | 41 | 46.9 |
